Measurements published in ChEMBL document CHEMBL3885881, “DrugMatrix”.

Species on record: Rattus norvegicus
Assay: DrugMatrix - Regimen: Daily Repeat
Format: toxicity, organism-based, Sprague-Dawley
Set-up: regimen Daily Repeat, gender Male, age 6-8 weeks
Details: in vivo, po, route oral GAVAGE, vehicle .5 % CMC; for ABSOLUTE BASOPHIL / ABSOLUTE EOSINOPHIL / ABSOLUTE LYMPHOCYTE / ABSOLUTE MONOCYTE / ABSOLUTE SEGMENTED NEUTROPHIL / BASOPHIL / EOSINOPHIL / ERYTHROCYTE COUNT / HEMATOCRIT / HEMOGLOBIN / LEUKOCYTE COUNT / LYMPHOCYTE / MEAN CORPUSCULAR HEMOGLOBIN / MEAN CORPUSCULAR HEMOGLOBIN CONCENTRATION / MEAN CORPUSCULAR VOLUME / MONOCYTE / NEUTROPHIL / NUCLEATED RED BLOOD CELLS / PLATELET COUNT: tissue Blood; for ALANINE AMINOTRANSFERASE / ALBUMIN / ALKALINE PHOSPHATASE / ASPARTATE AMINOTRANSFERASE / BLOOD UREA NITROGEN / CARBON DIOXIDE / CHLORIDE / CHOLESTEROL / CREATINE PHOSPHOKINASE / CREATININE / GLUCOSE / LACTATE DEHYDROGENASE / LIPASE / PHOSPHORUS / SODIUM / TOTAL BILIRUBIN / TOTAL PROTEIN / URIC ACID: tissue Plasma
[1] = 54 mg/kg, 72 h, dose level Low, time 3 day
[2] = 54 mg/kg, 120 h, dose level Low, time 5 day
[3] = 1200 mg/kg, 72 h, dose level High, time 3 day
[4] = 1200 mg/kg, 120 h, dose level High, time 5 day

SMILES: NC(N)=Nc1nc(CSCCC(N)=NS(N)(=O)=O)cs1 [FAMOTIDINE]
- ABSOLUTE BASOPHIL [1]: 0 CELLS/uL
- ABSOLUTE EOSINOPHIL [1]: 169.67 CELLS/uL
- ABSOLUTE LYMPHOCYTE [1]: 13320 CELLS/uL
- ABSOLUTE MONOCYTE [1]: 113.67 CELLS/uL
- ABSOLUTE SEGMENTED NEUTROPHIL [1]: 2530 CELLS/uL
- BASOPHIL [1]: 0%
- EOSINOPHIL [1]: 1%
- ERYTHROCYTE COUNT [1]: 5.11 x10E6/uL
- HEMATOCRIT [1]: 32.47%
- HEMOGLOBIN [1]: 12.1 G/DL
- LEUKOCYTE COUNT [1]: 16.13 x10E3/uL
- LYMPHOCYTE [1]: 81.67%
- MEAN CORPUSCULAR HEMOGLOBIN [1]: 23.73 pg
- MEAN CORPUSCULAR HEMOGLOBIN CONCENTRATION [1]: 37.27 G/DL
- MEAN CORPUSCULAR VOLUME [1]: 63.57 fL
- MONOCYTE [1]: 0.67%
- NEUTROPHIL [1]: 16.67%
- NUCLEATED RED BLOOD CELLS [1]: 0 /100WBC
- PLATELET COUNT [1]: 1110 x10E3/uL
- ALANINE AMINOTRANSFERASE [1]: 57 u/L
- ALBUMIN [1]: 4.17 G/DL
- ALKALINE PHOSPHATASE [1]: 343.67 u/L
- ASPARTATE AMINOTRANSFERASE [1]: 85 u/L
- BLOOD UREA NITROGEN [1]: 17 mg/dL
- CARBON DIOXIDE [1]: 27.33 mmol/L
- CHLORIDE [1]: 106.67 MEQ/L
- CHOLESTEROL [1]: 74.67 mg/dL
- CREATINE PHOSPHOKINASE [1]: 218 u/L
- CREATININE [1]: 0.19 mg/dL
- GLUCOSE [1]: 162 mg/dL
- LACTATE DEHYDROGENASE [1]: 62.33 u/L
- LIPASE [1]: 9 u/L
- PHOSPHORUS [1]: 14.6 mg/dL
- SODIUM [1]: 148.03 MEQ/L
- TOTAL BILIRUBIN [1]: 0.2 mg/dL
- TOTAL PROTEIN [1]: 5.87 G/DL
- URIC ACID [1]: 1.13 mg/dL
- ABSOLUTE BASOPHIL [2]: 0 CELLS/uL
- ABSOLUTE EOSINOPHIL [2]: 121 CELLS/uL
- ABSOLUTE LYMPHOCYTE [2]: 12766.33 CELLS/uL
- ABSOLUTE MONOCYTE [2]: 233 CELLS/uL
- ABSOLUTE SEGMENTED NEUTROPHIL [2]: 713 CELLS/uL
- BASOPHIL [2]: 0%
- EOSINOPHIL [2]: 1%
- ERYTHROCYTE COUNT [2]: 5.42 x10E6/uL
- HEMATOCRIT [2]: 34.9%
- HEMOGLOBIN [2]: 13.43 G/DL
- LEUKOCYTE COUNT [2]: 13.83 x10E3/uL
- LYMPHOCYTE [2]: 92%
- MEAN CORPUSCULAR HEMOGLOBIN [2]: 24.87 pg
- MEAN CORPUSCULAR HEMOGLOBIN CONCENTRATION [2]: 38.5 G/DL
- MEAN CORPUSCULAR VOLUME [2]: 64.63 fL
- MONOCYTE [2]: 1.67%
- NEUTROPHIL [2]: 5.33%
- NUCLEATED RED BLOOD CELLS [2]: 0 /100WBC
- PLATELET COUNT [2]: 1325.67 x10E3/uL
- ALANINE AMINOTRANSFERASE [2]: 55.33 u/L
- ALBUMIN [2]: 4.33 G/DL
- ALKALINE PHOSPHATASE [2]: 326.67 u/L
- ASPARTATE AMINOTRANSFERASE [2]: 90.67 u/L
- BLOOD UREA NITROGEN [2]: 18 mg/dL
- CARBON DIOXIDE [2]: 24.33 mmol/L
- CHLORIDE [2]: 106.33 MEQ/L
- CHOLESTEROL [2]: 62.67 mg/dL
- CREATINE PHOSPHOKINASE [2]: 662.67 u/L
- CREATININE [2]: 0.19 mg/dL
- GLUCOSE [2]: 182.67 mg/dL
- LACTATE DEHYDROGENASE [2]: 190.67 u/L
- LIPASE [2]: 8 u/L
- PHOSPHORUS [2]: 14.57 mg/dL
- SODIUM [2]: 146.63 MEQ/L
- TOTAL BILIRUBIN [2]: 0.2 mg/dL
- TOTAL PROTEIN [2]: 6.07 G/DL
- URIC ACID [2]: 1.6 mg/dL
- ABSOLUTE BASOPHIL [3]: 0 CELLS/uL
- ABSOLUTE EOSINOPHIL [3]: 179 CELLS/uL
- ABSOLUTE LYMPHOCYTE [3]: 9906 CELLS/uL
- ABSOLUTE MONOCYTE [3]: 48.67 CELLS/uL
- ABSOLUTE SEGMENTED NEUTROPHIL [3]: 1366.33 CELLS/uL
- BASOPHIL [3]: 0%
- EOSINOPHIL [3]: 1.67%
- ERYTHROCYTE COUNT [3]: 5.88 x10E6/uL
- HEMATOCRIT [3]: 36.73%
- HEMOGLOBIN [3]: 13.97 G/DL
- LEUKOCYTE COUNT [3]: 11.5 x10E3/uL
- LYMPHOCYTE [3]: 85.33%
- MEAN CORPUSCULAR HEMOGLOBIN [3]: 23.73 pg
- MEAN CORPUSCULAR HEMOGLOBIN CONCENTRATION [3]: 38.03 G/DL
- MEAN CORPUSCULAR VOLUME [3]: 62.5 fL
- MONOCYTE [3]: 0.67%
- NEUTROPHIL [3]: 12.33%
- NUCLEATED RED BLOOD CELLS [3]: 0 /100WBC
- PLATELET COUNT [3]: 1159.67 x10E3/uL
- ALANINE AMINOTRANSFERASE [3]: 56 u/L
- ALBUMIN [3]: 4.43 G/DL
- ALKALINE PHOSPHATASE [3]: 396.33 u/L
- ASPARTATE AMINOTRANSFERASE [3]: 89 u/L
- BLOOD UREA NITROGEN [3]: 16.33 mg/dL
- CARBON DIOXIDE [3]: 26.33 mmol/L
- CHLORIDE [3]: 106.33 MEQ/L
- CHOLESTEROL [3]: 85.33 mg/dL
- CREATINE PHOSPHOKINASE [3]: 213.67 u/L
- CREATININE [3]: 0.2 mg/dL
- GLUCOSE [3]: 152.33 mg/dL
- LACTATE DEHYDROGENASE [3]: 137.33 u/L
- LIPASE [3]: 8.67 u/L
- PHOSPHORUS [3]: 13.77 mg/dL
- SODIUM [3]: 148.03 MEQ/L
- TOTAL BILIRUBIN [3]: 0.27 mg/dL
- TOTAL PROTEIN [3]: 6.4 G/DL
- URIC ACID [3]: 2.37 mg/dL
- ABSOLUTE BASOPHIL [4]: 0 CELLS/uL
- ABSOLUTE EOSINOPHIL [4]: 254 CELLS/uL
- ABSOLUTE LYMPHOCYTE [4]: 15699.67 CELLS/uL
- ABSOLUTE MONOCYTE [4]: 74 CELLS/uL
- ABSOLUTE SEGMENTED NEUTROPHIL [4]: 1405.67 CELLS/uL
- BASOPHIL [4]: 0%
- EOSINOPHIL [4]: 1.33%
- ERYTHROCYTE COUNT [4]: 5.4 x10E6/uL
- HEMATOCRIT [4]: 34.6%
- HEMOGLOBIN [4]: 13.17 G/DL
- LEUKOCYTE COUNT [4]: 17.43 x10E3/uL
- LYMPHOCYTE [4]: 90%
- MEAN CORPUSCULAR HEMOGLOBIN [4]: 24.43 pg
- MEAN CORPUSCULAR HEMOGLOBIN CONCENTRATION [4]: 38.03 G/DL
- MEAN CORPUSCULAR VOLUME [4]: 64.2 fL
- MONOCYTE [4]: 0.33%
- NEUTROPHIL [4]: 8.33%
- NUCLEATED RED BLOOD CELLS [4]: 0 /100WBC
- PLATELET COUNT [4]: 1387 x10E3/uL
- ALANINE AMINOTRANSFERASE [4]: 59 u/L
- ALBUMIN [4]: 4.4 G/DL
- ALKALINE PHOSPHATASE [4]: 383.67 u/L
- ASPARTATE AMINOTRANSFERASE [4]: 87.67 u/L
- BLOOD UREA NITROGEN [4]: 18 mg/dL
- CARBON DIOXIDE [4]: 25.67 mmol/L
- CHLORIDE [4]: 103.67 MEQ/L
- CHOLESTEROL [4]: 59.33 mg/dL
- CREATINE PHOSPHOKINASE [4]: 259.33 u/L
- CREATININE [4]: 0.27 mg/dL
- GLUCOSE [4]: 182 mg/dL
- LACTATE DEHYDROGENASE [4]: 250.33 u/L
- LIPASE [4]: 8.67 u/L
- PHOSPHORUS [4]: 14.07 mg/dL
- SODIUM [4]: 145.8 MEQ/L
- TOTAL BILIRUBIN [4]: 0.17 mg/dL
- TOTAL PROTEIN [4]: 6.3 G/DL
- URIC ACID [4]: 2.17 mg/dL
